In article PMC11521309, “A novel 4-aminoquinoline chemotype with multistage antimalarial activity and lack of cross-resistance with PfCRT and PfMDR1 mutants” (PLOS Pathogens, 2024):
Several values for one entry are separate records, joined by “and”; a condition that tells them apart may be missing. Equal values may be shown once. Read-outs that look alike come from different tables or passages of the source.

What was measured:
[1] = test system: P. falciparum Dd2^3D7; design: key: S: sensitive; R: resistant; settings: ref [19],[20],[51]; cited from earlier work
[2] = test system: P. falciparum 7G8^F145I; design: key to Phenotype, 7G8^F145I: S: sensitive; R: resistant; settings: cited from earlier work
[3] = test system: P. falciparum Dd2^M343L; design: key to Phenotype, Dd2^M343L: S: sensitive; R: resistant; settings: cited from earlier work
[4] = test system: P. falciparum 7G8^7G8; design: key to Phenotype, 7G8^7G8: S: sensitive; R: resistant; settings: cited from earlier work
[5] = test system: P. falciparum Dd2^T93S; design: key to Phenotype, Dd2^T93S: S: sensitive; R: resistant; settings: cited from earlier work
[6] = test system: P. falciparum FCB; settings: read-out: IC50 FCB; means ± SEM, N 4; ref 2 Sidhu et al. 2006; cited from earlier work
[7] = test system: P. berghei PbGFP-Luccon liver stage; assay: In vitro inhibition of liver stage infection of Huh-7 cells, bioluminescence; type: cell-based, Plasmodium berghei
Experimental: In vitro inhibition of Plasmodium liver stage infection was assessed using bioluminescence data from Huh-7 cells infected with a firefly-luciferase-expressing P. berghei line, PbGFP-Luccon, in the presence of various compound concentrations. […] One day before drug treatment and infection, 10^4 Huh-7 cells/well were seeded in 96-well plates. The medium was then replaced by an infection medium (culture medium supplemented with 50 μg/mL gentamycin and 0.8 μg/mL amphotericin B) containing desired concentrations of test compounds. Fresh sporozoites recovered from salivary glands of infected female Anopheles stephensi mosquitoes were added to seeded Huh-7 cells at a 1:1 proportion, followed by centrifugation at 1700g for 5 minutes and incubation for 46 hours at 37°C under 5% CO2. Compound toxicity against Huh-7 cells was assessed by measuring […] using the Alamar Blue assay (Invitrogen). IC50 values were calculated using nonlinear regression analysis (GraphPad Prism version 9).

[8] = test system: P. falciparum NF54-Pfs16-GFP-Luc stage IV-V gametocytes; assay: Mature gametocyte (stages IV-V) viability, luciferase, 48 h; type: cell-based, Plasmodium falciparum; settings: 5 μM
Experimental: P. falciparum NF54-Pfs16-GFP-Luc (MRA-1217), a highly gametocyte-producing strain, was cultured following standard procedures. NF54-Luc ABS parasites were sorbitol-synchronized as previously described and cultured to reach 8–10% parasitemia as mature trophozoites prior to starting gametogenesis induction via nutrient deficit stress. Briefly, stress was induced by replacing only 40% of the culture medium and returning cultures to a 37°C incubation. Cultures were treated with 50 mM N-acetylglucosamine for 10 days to remove ABS parasites. Mature gametocytes (stages IV-V) were isolated using magnetic columns and incubated at 2% gametocytemia and 1.5% hematocrit in 96-well plates containing the test compounds for 48 hours at 37°C, following standard P. falciparum culturing conditions. Methylene blue was used as a gametocytocidal control alongside drug-free wells. Luciferase activity was assessed by adding 40 μL of luciferin substrate (Promega) to 40 μL of parasite lysates and detecting bioluminescence at an integration constant of 10s with the BioTek Cytation 5 Cell Imaging Multimode Reader.

[9] = test system: P. falciparum 3D7 ABS parasites; assay: ABS parasite survival assay, 72 h, flow cytometry; type: cell-based; settings: Plasmodium falciparum
Experimental: (§1) P. falciparum ABS parasites were cultured at 3% hematocrit in human O^+ RBCs in RPMI-1640 media supplemented with 25 mM HEPES, 50 mg/L hypoxanthine, 2 mM L-glutamine, 0.21% sodium bicarbonate, 0.5% (w/v) AlbuMAXII (Invitrogen) and 10 μg/mL gentamycin. Culture flasks were kept in modular incubator chambers (Billups-Rothenberg) in a 5% O2, 5% CO2, and 90% N2 atmosphere at 37°C. Synchronized ring-stage parasites were obtained by two consecutive rounds of treatment with 5% D-sorbitol in 48-hour intervals. […] This was done by exposing cultures at 1% hematocrit and 0.3% parasitemia in 96-well plates in the presence of drugs in a two-fold 10 or 12-point serial dilution in duplicate along with drug-free controls. After a 72-hour incubation, parasite survival was assessed by flow cytometry on an iQue flow cytometer (Sartorius) using SYBR Green and MitoTracker Deep Red FM (Life Technologies) as nuclear stain and vital dye, respectively. Parasite survival was determined as a percentage relative to drug-free control. IC50 values were interpolated from log concentration versus response curves in Prism 9 (GraphPad Prism Software Inc.).

[10] = test system: P. falciparum Dd2 ABS parasites; assay: ABS parasite survival assay, 72 h, flow cytometry; type: cell-based; settings: Plasmodium falciparum
Experimental: as §1

[11] = Dd2T93S, mean ± SEM, ref 2 (Dhingra et al., 2019)

In the case of `CCN(CC)CCCC(C)Nc1ccnc2cc(Cl)ccc12` (stereo not shown) [CQ, chloroquine], the “Phenotype, Dd2^3D7” value [1] is listed as “S”, the IC50 ([2]; 7G8F145I, mean ± SEM, ref 3 (Kim et al., 2019)) is listed as 7.3 ± 0.4 nM and the “Phenotype, 7G8^F145I” value ([2]; ref [19],[20],[51]) is listed as “S”. For the same molecule, the IC50 ([3]; Dd2M343L, mean ± SEM, ref 1 (Ross et al., 2018)) was 41.8 ± 1.9 nM, the “Phenotype, Dd2^M343L” value ([3]; ref [19],[20],[51]) was “R” and the IC50 ([4]; 7G87G8, mean ± SEM, ref 3 (Kim et al., 2019)) was 83 ± 7.5 nM. For the same molecule, the “Phenotype, 7G8^7G8” value ([4]; ref [19],[20],[51]) was “R”, the IC50 [5, 11] was 61.9 ± 7.6 nM and the IC90 [5, 11] was 141 ± 6.3 nM. The “Phenotype, Dd2^T93S” value ([5]; ref [19],[20],[51]) was “R” and the IC50 [6] was 217 ± 34.6 nM.
With `COc1cc2nccc(Nc3cccc(Oc4ccccc4)c3)c2cc1OC` [LDT-623] the “% Infection” value ([7]; 0.01 µM, Average) was 105.58%, the “% Infection” value ([7]; 0.01 µM, Rep #1, Rep #2 singly, DMSO = 100) was 99.71% and 111.44% and the “% Infection” value ([7]; 0.10 µM, Average) was 109.90%. The “% Infection” value ([7]; 0.10 µM, Rep #1, Rep #2 singly, DMSO = 100) was 116.90% and 102.90%, the “% Infection” value ([7]; 0.50 µM, Average) was 89.46% and the “% Infection” value ([7]; 0.50 µM, Rep #1, Rep #2 singly, DMSO = 100) was 98.58% and 80.35%. For the same molecule, the “% Infection” value ([7]; 1.00 µM, Average) was 47.89%, the “% Infection” value ([7]; 1.00 µM, Rep #1, Rep #2 singly, DMSO = 100) was 59.84% and 35.94% and the “% Infection” value ([7]; 1.50 µM, Average) was 16.43%. For the same molecule, the “% Infection” value ([7]; 1.50 µM, Rep #2 only, DMSO = 100) was 16.43%, the “% Infection” value ([7]; 2.00 µM, Average) was 10.50% and the “% Infection” value ([7]; 2.00 µM, Rep #1, Rep #2 singly, DMSO = 100) was 13.79% and 7.22%. The “% Infection” value ([7]; 3.00 µM, Average) was 3.61%, the “% Infection” value ([7]; 3.00 µM, Rep #1, Rep #2 singly, DMSO = 100) was 5.04% and 2.18% and the “% Infection” value ([7]; 4.00 µM, Average) was 3.01%. The “% Infection” value ([7]; 4.00 µM, Rep #1 only, DMSO = 100) was 3.01%, the inhibition at 1 µM ([7]; Plasmodium berghei, Huh-7, 1 μM, read-out: inhibition of hepatic infection) was 52.1% and the IC50 ([7]; Plasmodium berghei, Huh-7 cells, P. berghei sporozoites, 48h, N = 2, read-out: IC50 hepatic stage infection) was 983 nM. The “% Inhibition of viability, mature gametocytes” value ([8]; mean, N = 3) was 62% and 61.67%, the “% Inhibition of viability, mature gametocytes” value ([8]; single replicates) was 78.00% and 67.00% and 40.00% and the IC50 ([9]; 3D7, ABS parasites, N = 3, read-out: IC50 3D7) was 130 ± 10 nM. It also gave an IC50 ([9]; 3D7, CQ-sensitive strain, read-out: IC50 3D7) of 127 nM, an IC50 ([9]; 3D7, read-out: IC50 3D7) of 126.6 ± 0.1 nM and an IC50 ([10]; DD2, ABS parasites, N = 3, read-out: IC50 Dd2) of 300 ± 30 nM. For the same molecule, the IC50 ([10]; DD2, CQ-resistant strain, read-out: IC50 Dd2) was 365 nM and the IC50 ([10]; DD2, read-out: IC50 Dd2) was 365 ± 17.5 nM.
